The record followed here is patent publication US7655392B2, “Quenching methods for red blood cell inactivation process” (priority 2004, dated 2010).

The structures appear in SMILES notation. Like-named read-outs stand apart in the source and are kept apart here.

The subject of data set [1] is red blood cells. From the text: Methods for determining ATP, 2,3-DPG, glucose, hemoglobin, hemolysis, and potassium are available in the art. See for example, Davey et al., Transfusion, 32:525-528 (1992), the disclosure of which is incorporated herein. Methods for determining red blood cell function are also described in Greenwalt et al., Vox Sang, 58:94-99 (1990); Hogman et al., Vox Sang, 65:271-278 (1993); and Beutler et al., Blood, Vol. 59 (1982) the disclosures of which are incorporated herein by reference. For example, intracellular ATP and intracellular 2,3-DPG are measured using a Sigma ATP kit or 2,3-DPG kit (Sigma, St. Louis, Mo.). The ATP kit is used following Sigma procedure No. 366-UV, the disclosure of which is hereby incorporated by reference. […] The extracellular pH is measured by centrifuging the cells at 4° C. for 15 minutes at 12,000×g and removing the supernatant, for which the pH is measured using a standard pH meter at room temperature (e.g. Beckman, Epoxy Calomel electrode). For the intracellular pH, the remaining pellet is capped in the centrifuge tube and stored at about −80° C. for at least 2 hours. This is then lysed by the addition of deionized water. […] Measurements can be made shortly after treatment and as a function of post treatment storage, for example storage for up to 42 days.
Full units of red cell concentrates (Interstate Blood Bank, Inc., Memphis, Tenn.) were leukoreduced. A volume of 200 mL of this RCC (80% hematocrit) was mixed with 94 mL of Erythrosol or 100 mL of Adsol (Baxter Healthcare Corp., Deerfield, Ill.) as control (unit 1). A volume of 20 mL 8% dextrose was used to dissolve PIC-1 (mg) and acid glutathione (mg) and added to one unit to provide 0.2 mM PIC-1 and 2 mM glutathione (unit 2). […] For the glutathione, 1.2 mL of 10 N NaOH was added (2 equivalents). The PIC-1 was mixed with the unit, followed 1 minute later (unit 3) or 5 minutes later (unit 4) by glutathione. For unit 5, neutralized glutathione was mixed first, followed 10 minutes later by the PIC-1. […] All units were mixed by grasping the ends of the blood bag and mixing in a FIG. 8 motion 30 times. These were then incubated at room temperature for 20 hours total. A compound adsorption device (CAD), comprising a polymeric resin contained within a mesh pouch, was used for all but the control sample. This device is intended to remove residual PIC-1, PIC-1 breakdown products, and glutathione from the samples. Samples were incubated for 8 hours, then transferred to a second blood bag containing the CAD and incubated for an additional 12 hours. Following the room temperature incubation, samples were transferred to a refrigerator (4° C.) and stored up to 43 days. Aliquots were removed from each unit 12 hours and 20 hours post mixing, and every week thereafter. Aliquots were analyzed for total hemoglobin, pH, intracellular ATP, plasma hemoglobin, potassium, extracellular glucose and extracellular lactate.

Data set [2] concerns Vesicular Stomatitis Virus (VSV). The data set is classed as cell-based.
The mark [3] stands for this setting: Table 6A: 20 mM glutathione+2 eq base only, no PIC-1.

As to `O=C(CCNc1c2ccccc2nc2ccccc12)OCCN(CCCl)CCCl` [PIC-1], the “Percent Hemolysis” value in data set [1] (16B day 0, sample 2: standard 0.2 mM PIC-1+2 mM GSH) turned out to be 0.22%; in data set [1] (16B day 0, sample 3: 0.2 mM PIC-1, 1' delay, 20 mM GSH+2 eq base), 0.19%; in data set [1] (16B day 0, sample 4: 0.2 mM PIC-1, 5' delay, 20 mM GSH+2 eq base), 0.19%; in data set [1] (16B day 0, sample 5: 20 mM GSH+2 eq base, 10' delay, 0.2 mM PIC-1), 0.19%; in data set [1] (16B day 0.5, sample 2: standard 0.2 mM PIC-1+2 mM GSH) it was 0.24%; in data set [1] (16B day 0.5, sample 3: 0.2 mM PIC-1, 1' delay, 20 mM GSH+2 eq base), 0.16%. Also, the “Percent Hemolysis” value in data set [1] (16B day 0.5, sample 4: 0.2 mM PIC-1, 5' delay, 20 mM GSH+2 eq base) is reported as 0.25%; in data set [1] (16B day 0.5, sample 5: 20 mM GSH+2 eq base, 10' delay, 0.2 mM PIC-1), 0.24%; in data set [1] (16B day 0.8, sample 2: standard 0.2 mM PIC-1+2 mM GSH), 0.46%; in data set [1] (16B day 0.8, sample 3: 0.2 mM PIC-1, 1' delay, 20 mM GSH+2 eq base), 0.40%; in data set [1] (16B day 0.8, sample 4: 0.2 mM PIC-1, 5' delay, 20 mM GSH+2 eq base), 0.48%; in data set [1] (16B day 0.8, sample 5: 20 mM GSH+2 eq base, 10' delay, 0.2 mM PIC-1), 0.47%. Also, the “Percent Hemolysis” value in data set [1] (16B day 7, sample 2: standard 0.2 mM PIC-1+2 mM GSH) came to 0.62%; in data set [1] (16B day 7, sample 3: 0.2 mM PIC-1, 1' delay, 20 mM GSH+2 eq base) it was 0.35%; in data set [1] (16B day 7, sample 4: 0.2 mM PIC-1, 5' delay, 20 mM GSH+2 eq base), 0.52%; in data set [1] (16B day 7, sample 5: 20 mM GSH+2 eq base, 10' delay, 0.2 mM PIC-1), 0.57%; in data set [1] (16B day 14, sample 2: standard 0.2 mM PIC-1+2 mM GSH), 0.69%; in data set [1] (16B day 14, sample 3: 0.2 mM PIC-1, 1' delay, 20 mM GSH+2 eq base) it was 0.50%. The “Percent Hemolysis” value in data set [1] (16B day 14, sample 4: 0.2 mM PIC-1, 5' delay, 20 mM GSH+2 eq base) is 0.52%; in data set [1] (16B day 14, sample 5: 20 mM GSH+2 eq base, 10' delay, 0.2 mM PIC-1), 0.55%; in data set [1] (16B day 22, sample 2: standard 0.2 mM PIC-1+2 mM GSH), 0.87%; in data set [1] (16B day 22, sample 3: 0.2 mM PIC-1, 1' delay, 20 mM GSH+2 eq base), 0.59%; in data set [1] (16B day 22, sample 4: 0.2 mM PIC-1, 5' delay, 20 mM GSH+2 eq base), 0.62%; in data set [1] (16B day 22, sample 5: 20 mM GSH+2 eq base, 10' delay, 0.2 mM PIC-1), 0.63%. In addition, the “Percent Hemolysis” value in data set [1] (16B day 28, sample 2: standard 0.2 mM PIC-1+2 mM GSH) is reported as 0.86%; in data set [1] (16B day 28, sample 3: 0.2 mM PIC-1, 1' delay, 20 mM GSH+2 eq base), 0.63%; in data set [1] (16B day 28, sample 4: 0.2 mM PIC-1, 5' delay, 20 mM GSH+2 eq base) it was 0.64%; in data set [1] (16B day 28, sample 5: 20 mM GSH+2 eq base, 10' delay, 0.2 mM PIC-1), 0.65%; in data set [1] (16B day 35, sample 2: standard 0.2 mM PIC-1+2 mM GSH), 0.99%; in data set [1] (16B day 35, sample 3: 0.2 mM PIC-1, 1' delay, 20 mM GSH+2 eq base) it was 0.74%. In addition, the “Percent Hemolysis” value in data set [1] (16B day 35, sample 4: 0.2 mM PIC-1, 5' delay, 20 mM GSH+2 eq base) stood at 0.76%; in data set [1] (16B day 35, sample 5: 20 mM GSH+2 eq base, 10' delay, 0.2 mM PIC-1) it was 0.71%; in data set [1] (16B day 43, sample 2: standard 0.2 mM PIC-1+2 mM GSH), 1.17%; in data set [1] (16B day 43, sample 3: 0.2 mM PIC-1, 1' delay, 20 mM GSH+2 eq base), 0.82%; in data set [1] (16B day 43, sample 4: 0.2 mM PIC-1, 5' delay, 20 mM GSH+2 eq base), 0.90%; in data set [1] (16B day 43, sample 5: 20 mM GSH+2 eq base, 10' delay, 0.2 mM PIC-1), 0.83%. In addition, the “inactivation of a high titer of VSV” value in data set [2] is “essentially complete inactivation”.
Consider `N[C@@H](CCC(=O)N[C@@H](CS)C(=O)NCC(=O)O)C(=O)O` [glutathione, γ-L-glutamyl-L-cysteinyl-glycine], for which the “Percent Hemolysis” value in data set [1] (16B day 0, sample 6: 0.2 mM GSH+2 eq base, no PIC-1) is reported as 0.15%; in data set [1] (16B day 0.5, sample 6: 0.2 mM GSH+2 eq base, no PIC-1) it was 0.19%; in data set [1] (16B day 0.8, sample 6: 0.2 mM GSH+2 eq base, no PIC-1) it was 0.51%; in data set [1] (16B day 7, sample 6: 0.2 mM GSH+2 eq base, no PIC-1) it was 0.58%; in data set [1] (16B day 14, sample 6: 0.2 mM GSH+2 eq base, no PIC-1), 0.61%; in data set [1] (16B day 22, sample 6: 0.2 mM GSH+2 eq base, no PIC-1), 0.60%. Also, the “Percent Hemolysis” value was found to be 0.71% in data set [1] (16B day 28, sample 6: 0.2 mM GSH+2 eq base, no PIC-1); 0.70% in data set [1] (16B day 35, sample 6: 0.2 mM GSH+2 eq base, no PIC-1); 0.75% in data set [1] (16B day 43, sample 6: 0.2 mM GSH+2 eq base, no PIC-1). Moreover, in data set [2] (setting [3]), the “Log VSV reduction” value was −0.04 Log. Moreover, in data set [2] (setting [3]), the “Log VSV titer” value amounted to 6.25 Log.
